Like-named read-outs stand apart in the source and are kept apart here.
Key:
[1] = test system: Prostatic cancer cells, PC-3; experiment: Cancer cell inhibitory (growth suppressive) action against prostatic cancer cells, CellTiter-Glo viable cell count; type: cell-based; conditions: PC-3, 10 μg/mL, 24 hours
Method: (§1) Prostatic cancer cells, PC-3, were pre-cultured in RPMI1640 medium containing 10% FBS at 37° C. in a 5% CO2 ambient. Thereafter, 4,000 cells were seeded per well of a 96-well plate and further cultured for 24 hours. Subsequently, Compound (11) was added to the medium so as to obtain a final concentration of 10 μg/mL and cultured at 37° C. for 24 hours in a 5% CO2 ambient. The cultured cells were analyzed for viable cell count according to CellTiter-Glo Luminescent Cell Viability Assay (manufactured by Promega KK.). As a reference, the number of cells cultured in a medium containing a 0.1% dimethylsulfoxide solution (hereinafter, simply referred to as DMSO) in place of a medium containing Compound (11), in the aforementioned operation, was used as 100.
Viable cell count was analyzed in the same manner as in Experimental Example 8 except that the compounds shown in Table 3 were used in place of Compound (11) of Experimental Example 8.
Viable cell count was analyzed in the same manner as in Experimental Example 8 except that comparative compounds 1 to 4 were used in place of Compound (11) of Experimental Example 8.
The growth rate in Examples herein is a numerical value of the number of cells obtained after culture relative to the number of cells (regarded as 100) grown in a medium containing 0.1% DMSO.
Evaluation of cancer cell inhibition against the prostatic cancer cells (PC-3) was made as follows. • A: Cancer cell growth rate is less than 20% (cancer cell inhibitory (growth suppressive) effect is extremely high) • B: Cancer cell growth rate is 20% or more and less than 50% (cancer cell inhibitory (growth suppressive) effect is high) • C: Cancer cell growth rate is 50% or more (cancer cell inhibitory (growth suppressive) effect is low)

[2] = test system: K562 ALDH (−) fraction (general cancer cells); experiment: Cancer stem-cell selective inhibitory action against chronic myelocytic leukemia cells, ALDH (−) fraction, CellTiter-Glo; type: cell-based, Human; conditions: for activity at 10 µg/mL: 10 μg/ml
Method: (§2) Human chronic myelocytic leukemia cells, K562, were pre-cultured in RPMI1640 medium containing 10% FBS at 37° C. in a 5% CO2 ambient. Then, a fraction containing 80% or more of cancer stem cells was extracted by use of ALDEFLUOR reagent (manufactured by VERITAS Corporation) and FACSAria flow cytometry (manufactured by Nippon Becton, Dickinson and Company). Subsequently, Compound (5) was added to the medium so as to obtain a final concentration of 10 μg/mL and cultured at 37° C. for 24 hours in a 5% CO2 ambient. The cultured cells were analyzed for viable cell count according to CellTiter-Glo Luminescent Cell Viability Assay (manufactured by Promega KK.). As a reference, the number of cells cultured in a medium containing a 0.1% dimethylsulfoxide solution (hereinafter, simply referred to as DMSO) in place of a medium containing Compound (1), in the aforementioned operation, was used as 0.1. Note that hereinafter, an ALDEFLUOR reagent positive fraction (deemed as cancer stem cells) is represented by ALDH (+), whereas an ALDEFLUOR reagent negative fraction (not deemed as cancer stem cells) is represented by ALDH (−), in some cases.
(§3) The same operation as in Experimental Example 12 was repeated except that Compound (5) in Experimental Example 12 was changed to the compounds shown in Table 4 and final concentrations shown in Table 4 were used and viable cell counts were separately analyzed. Note that the growth rate in Examples herein is a numerical value of the number of cells obtained after culture relative to the number of cells (regarded as 0.1) grown in a medium containing 0.1% DMSO.
(§4) The same operation as in Experimental Example 12 was repeated except that Compound (5) in Experimental Example 12 was changed to Imatinib (manufactured by NOVARTIS), which is a general anticancer drug, and comparative compounds shown in Table 4 and final concentrations shown in Table 4 were used and viable cell counts were separately analyzed.
(§5) The growth suppressive effect of cancer stem cells was evaluated based on the following criteria. Note that the growth rate in Examples herein is a numerical value relative to the number of cells (regarded as 0.1) grown in a medium containing 0.1% DMSO. • A: The value of ALDH (+) is less than 0.5 (growth suppressive effect against cancer stem cells is extremely high) • B: The value of ALDH (+) is 0.5 or more and less than 0.95 (growth suppressive effect against cancer stem cells is high) • C: The value of ALDH (+) is 0.95 or more (no growth suppressive effect against cancer stem cells)
(§6) Furthermore, superiority of cancer stem cells was evaluated by comparing cancer stem cells to cancer cells based on the following criteria. ALDH (+) represents cancer stem cells; whereas ALDH (−) represents general cancer cells. • A: The value of ALDH (+)/ALDH (−) is less than 0.8 (selective inhibitory effect against cancer stem cells is extremely high) • B: The value of ALDH (+)/ALDH (−) is 0.8 or more and less than 0.95 (selective inhibitory effect against cancer stem cells is high) • C: The value of ALDH (+)/ALDH (−) is 0.95 or more (no selective inhibitory effect against cancer stem cells)

[3] = test system: K562 ALDH (+) fraction (cancer stem cells); experiment: Cancer stem-cell selective inhibitory action against chronic myelocytic leukemia cells, ALDH (+) fraction, CellTiter-Glo; type: cell-based; conditions: Homo sapiens, 24 hours; for activity at 10 µg/mL: 10 μg/ml; for activity at 0.12 µg/mL: 0.12 μg/ml; for activity at 0.24 µg/mL: 0.24 μg/ml; for activity at 0.35 µg/mL: 0.35 μg/ml; for activity at 0.47 µg/mL: 0.47 μg/ml; for activity at 0.59 µg/mL: 0.59 μg/ml
Method: as §2, §3, §4, §5, §6

[4] = test system: Human pancreas cancer cells, KLM-1; experiment: Cancer cell inhibitory (growth suppressive) action against pancreatic cancer cells, CellTiter-Glo viable cell count; type: cell-based; conditions: KLM1, KLM-1, 10 μg/mL, 24 hours
Method: as §1, with “Observation on cancer cell inhibitory (growth suppressive) action against pancreatic cancer cells Human pancreas” for “Prostatic”, “KLM-1,” for “PC-3,”, “(1)” for “(11)”, “(1),” for “(11),”, “regarded (100%).” for “used as 100.”
Viable cell count was analyzed in the same manner as in Experimental Example 1 except that Compound (1) of Experimental Example 1 was changed to compounds shown in Table 2.
Viable cell count was analyzed in the same manner as in Experimental Example 1 except that Compound (1) was changed to comparative compounds 1 to 4.
Viable cell counts of Experimental Examples 1 to 7 and Comparative Examples 1 to 4 were analyzed to obtain growth rates.
Evaluation of cancer cell inhibition against the pancreatic cancer cells (KLM-1) (growth suppression) was made based on the following criteria. Note that the growth rate in Examples herein is a numerical value of the number of cells obtained after culture relative to the number of cells (regarded as 100) grown in a medium containing 0.1% DMSO. Evaluation of cancer cell inhibition against the pancreatic cancer cells (KLM-1) was made as follows. • A: Cancer cell growth rate is less than 20% (cancer cell inhibitory (growth suppressive) effect is extremely high) • B: Cancer cell growth rate is 20% or more and less than 50% (cancer cell inhibitory (growth suppressive) effect is high) • C: Cancer cell growth rate is 50% or more (cancer cell inhibitory (growth suppressive) effect is low)

[5] = Measurement of fluorescent property of compound (spectrofluorometer); type: physicochemical; conditions: 5 μM DMSO solution
Method: The excitation wavelength and fluorescence wavelength of the compound were measured by a FL4500 spectrofluorometric measuring machine manufactured by Hitachi High-Technologies Corporation.

[6] = test system: K562-BFP human chronic myelocytic leukemia cells transplanted to zebra young fish; experiment: Cancer metastasis suppressive effect in metastatic foci of cancer cells transplanted to zebra young fish; type: in vivo; conditions: metastatic foci (region within 300 to 450 μm from a transplanted tumor); for Evaluation (inhibition rate in metastatic foci): 0.5 μm in breeding water; for Inhibition rate: final concentration of 0.5 μm in breeding water, 100×(1-F1/F0) versus DMSO
From the text: From cell strain K562-BFP, which is a strain of human chronic myelocytic leukemia cells having fluorescent protein TagBFP constantly expressed, a fraction (ALDH (+)) containing 80% or more of cancer stem cells was extracted by use of a cancer stem cell marker, ALDEFLUOR reagent (manufactured by VERITAS Corporation) and FACSAria flow cytometry (manufactured by Nippon Becton, Dickinson and Company). The ALDH (+) fraction and a ALDH (−) fraction of general cancer cells were transplanted separately to zebra young fish (MieKomachi lineage, 2 days after fertilization) and the fish were raised in a 32° C. environment. Furthermore, 24 hours after transplantation, Compound (16) was added to breeding water so as to obtain a final concentration of […] and fish were raised for two days in a 32° C. environment. Cells transplanted to the zebra young fish were observed under MZ16F fluorescent stereoscopic microscope (manufactured by Leica Microsystems) and a fluorescent image of the cells after 24 hours was photographed and then fluorescent intensity was quantified.
As a reference, the fluorescent intensity of cells, which were cultured in the same operation method as above in a medium containing a 0.1% DMSO solution in place of Compound (16), was used.
Fluorescent images were photographed in the same manner as in Experimental Example 29 except that Imatinib and Dasatinib were respectively used in place of the compound (16) in Experimental Example 29.
The inhibition rate herein was obtained according to the expression: 100×(1-F1/F0), where the fluorescent intensity of cells when a test substance was added is represented by F1, and the fluorescent intensity of cells when a reference substance (DMSO) was added is represented by F0.
The growth suppressive effect in metastatic foci (region within 300 to 450 μm from a transplanted tumor) of cancer stem cells was evaluated based on the following criteria. • A: Inhibition rate is 70 or more (growth suppressive effect against metastatic foci (region within 300 to 450 μm from a transplanted tumor) of cancer stem cells is extremely high) • B: Inhibition rate is 50 or more and less than 70 (growth suppressive effect against metastatic foci (region within 300 to 450 μm from a transplanted tumor) of cancer stem cells is high) • C: Inhibition rate is less than 50 (growth suppressive effect against metastatic foci (region within 300 to 450 μm from a transplanted tumor) of cancer stem cells is low)

[7] = read-out: Evaluation (cancer cell growth rate)
[8] = relative to 0.1% DMSO (100), read-out: Cancer cell growth rate (%)
[9] = Homo sapiens, 24 hours, relative to 0.1% DMSO, read-out: ALDH(−) (growth rate)
[10] = read-out: Growth suppression evaluated
[11] = relative to 0.1% DMSO, read-out: ALDH(+) (growth rate)

Row | SMILES | activity at 10 µg/mL [1, 7] [%] | activity at 10 µg/mL [1, 8] [%] | activity at 10 µg/mL [2, 9] [%] | activity at 10 µg/mL [3, 10] [%] | activity at 10 µg/mL [3, 11] [%] | activity at 10 µg/mL [4, 7] [%] | activity at 10 µg/mL [4, 8] [%] | Excitation wavelength λex [5] [nm] | Fluorescence wavelength λem [5] [nm] | Evaluation (inhibition rate in metastatic foci) [6] | Inhibition rate [6] | further results
1 | CC[N+]1=C(/C=c2\s/c(=C/c3ccc4c(c3)C3CCCC3N4c3ccccc3)c(=O)n2CC(=O)O)C(C)(C)c2ccccc21 (centres unmarked) [Compound 15] | < 20 | 7.1 | 26 | < 50 | 21 | < 20 | 9 | 568 | 643 |  |  | 
2 | CCn1c2ccccc2c2cc(/C=c3/s/c(=C\C4=[N+](CC)c5ccccc5C4(C)C)n(CC(=O)O)c3=O)ccc21 [Compound 20] | < 20 | 4.8 | 25 | < 50 | 14 | 20 to 50 | 22.3 | 493 | 585 |  |  | 
3 | Cc1nc(Nc2ncc(C(=O)Nc3c(C)cccc3Cl)s2)cc(N2CCN(CCO)CC2)n1 [Dasatinib] |  |  |  |  |  |  |  |  |  | C (Inhibition rate is less than 50) | 36 | 
4 | Cc1ccc(NC(=O)c2ccc(CN3CCN(C)CC3)cc2)cc1Nc1nccc(-c2cccnc2)n1 [Imatinib, reference compound] |  |  |  |  |  |  |  |  |  | B (Inhibition rate is 50 or more and less than 70) | 60 | inhibitory effect against general cancer cells, in words [2]: an inhibitory effect against general cancer cells was observed; activity at 0.12 µg/mL ([2]; Homo sapiens, 0.12 μg/ml, 24 hours, relative to 0.1% DMSO, read-out: ALDH(−) (growth rate)): 51%; activity at 0.24 µg/mL ([2]; Homo sapiens, 0.24 μg/ml, 24 hours, relative to 0.1% DMSO, read-out: ALDH(−) (growth rate)): 40%; activity at 0.35 µg/mL ([2]; Homo sapiens, 0.35 μg/ml, 24 hours, relative to 0.1% DMSO, read-out: ALDH(−) (growth rate)): 32%; activity at 0.47 µg/mL ([2]; Homo sapiens, 0.47 μg/ml, 24 hours, relative to 0.1% DMSO, read-out: ALDH(−) (growth rate)): 22%; activity at 0.59 µg/mL ([2]; Homo sapiens, 0.59 μg/ml, 24 hours, relative to 0.1% DMSO, read-out: ALDH(−) (growth rate)): 11%; activity at 0.12 µg/mL [3, 10]: 50 to 95%; activity at 0.12 µg/mL [3, 11]: 74%; activity at 0.24 µg/mL [3, 10]: 50 to 95%; activity at 0.24 µg/mL [3, 11]: 59%; activity at 0.35 µg/mL [3, 10]: < 50%; activity at 0.35 µg/mL [3, 11]: 48%; activity at 0.47 µg/mL [3, 10]: < 50%; activity at 0.47 µg/mL [3, 11]: 36%; activity at 0.59 µg/mL [3, 10]: < 50%; activity at 0.59 µg/mL [3, 11]: 31%

From patent US10220024B2, “Method of inhibiting cancer cell, method for detecting cancer cell, and system for detecting cancer cell” (CANON KABUSHIKI KAISHA, priority 2012, dated 2019)
